Measured values published in patent US20230125667A1, “NOVEL TDZD ANALOGS AS AGENTS THAT DELAY, PREVENT, OR REVERSE AGE-ASSOCIATED DISEASES AND AS ANTI-CANCER AND ANTILEUKEMIC AGENTS” (United States Government as represented by the Department …, priority 2020, published 2023).

Tests used:
BT-549 = assay: NCI-60 growth inhibition: BT-549 (Breast Cancer); type: cell-based, human; conditions: Homo sapiens
SF-539 = assay: NCI-60 growth inhibition: SF-539 (CNS Cancer); type: cell-based, human; conditions: Homo sapiens
OVCAR-8 = assay: NCI-60 growth inhibition: OVCAR-8 (Ovarian Cancer); type: cell-based, human; conditions: Homo sapiens
COLO 205 = assay: NCI-60 growth inhibition: COLO 205 (Colon Cancer); type: cell-based, human; conditions: Homo sapiens
SN12C = assay: NCI-60 growth inhibition: SN12C (Renal Cancer); type: cell-based, human; conditions: Homo sapiens
MDA-MB-435 = assay: NCI-60 growth inhibition: MDA-MB-435 (Melanoma); type: cell-based, human; conditions: Homo sapiens
DU-145 = assay: NCI-60 growth inhibition: DU-145 (Prostate Cancer); type: cell-based, human; conditions: Homo sapiens
786-0 = assay: NCI-60 growth inhibition: 786-0 (Renal Cancer); type: cell-based, human; conditions: Homo sapiens
IGROV1 = assay: NCI-60 growth inhibition: IGROV1 (Ovarian Cancer); type: cell-based, human; conditions: Homo sapiens, IGROV-1
K-562 = assay: NCI-60 growth inhibition: K-562 (Leukemia); type: cell-based, human; conditions: Homo sapiens, K562
MDA-MB-231/ATCC = assay: NCI-60 growth inhibition: MDA-MB-231/ATCC (Breast Cancer); type: cell-based, human; conditions: Homo sapiens
UO-31 = assay: NCI-60 growth inhibition: UO-31 (Renal Cancer); type: cell-based, human; conditions: Homo sapiens
HCT-15 = assay: NCI-60 growth inhibition: HCT-15 (Colon Cancer); type: cell-based, human; conditions: Homo sapiens
RXF 393 = assay: NCI-60 growth inhibition: RXF 393 (Renal Cancer); type: cell-based, human; conditions: Homo sapiens
SF-268 = assay: NCI-60 growth inhibition: SF-268 (CNS Cancer); type: cell-based, human; conditions: Homo sapiens
SNB-19 = assay: NCI-60 growth inhibition: SNB-19 (CNS Cancer); type: cell-based, human; conditions: Homo sapiens
ACHN = assay: NCI-60 growth inhibition: ACHN (Renal Cancer); type: cell-based, human; conditions: Homo sapiens
SK-MEL-5 = assay: NCI-60 growth inhibition: SK-MEL-5 (Melanoma); type: cell-based, human; conditions: Homo sapiens
OVCAR-4 = assay: NCI-60 growth inhibition: OVCAR-4 (Ovarian Cancer); type: cell-based, human; conditions: Homo sapiens
NCI-H460 = assay: NCI-60 growth inhibition: NCI-H460 (Non-Small-Cell Lung Cancer); type: cell-based, human; conditions: Homo sapiens
HCT-116 = assay: NCI-60 growth inhibition: HCT-116 (Colon Cancer); conditions: Homo sapiens, HCT-116
LOX IMVI = assay: NCI-60 growth inhibition: LOX IMVI (Melanoma); type: cell-based, human; conditions: Homo sapiens
HT29 = assay: NCI-60 growth inhibition: HT29 (Colon Cancer); type: cell-based, human; conditions: Homo sapiens, HT-29
MDA-MB-468 = assay: NCI-60 growth inhibition: MDA-MB-468 (Breast Cancer); type: cell-based, human; conditions: Homo sapiens, MDA-MB-468
UACC-257 = assay: NCI-60 growth inhibition: UACC-257 (Melanoma); type: cell-based, human; conditions: Homo sapiens
CCRF-CEM = assay: NCI-60 growth inhibition: CCRF-CEM (Leukemia); type: cell-based, human; conditions: Homo sapiens
UACC-62 = assay: NCI-60 growth inhibition: UACC-62 (Melanoma); type: cell-based, human; conditions: Homo sapiens
OVCAR-5 = assay: NCI-60 growth inhibition: OVCAR-5 (Ovarian Cancer); type: cell-based, human; conditions: Homo sapiens
MALME-3M = assay: NCI-60 growth inhibition: MALME-3M (Melanoma); type: cell-based, human; conditions: Homo sapiens
SW-620 = assay: NCI-60 growth inhibition: SW-620 (Colon Cancer); type: cell-based, human; conditions: Homo sapiens
A498 = assay: NCI-60 growth inhibition: A498 (Renal Cancer); type: cell-based, human; conditions: Homo sapiens
NCI-H23 = assay: NCI-60 growth inhibition: NCI-H23 (Non-Small-Cell Lung Cancer); type: cell-based, human; conditions: Homo sapiens
[1] = test system: MV4-11 cell line (myelomonocytic leukemia); conditions: MV4-11 cells
PC-3 = assay: NCI-60 growth inhibition: PC-3 (Prostate Cancer); type: cell-based, human; conditions: Homo sapiens
HS 578T = assay: NCI-60 growth inhibition: HS 578T (Breast Cancer); type: cell-based, human; conditions: Homo sapiens
HOP-92 = assay: NCI-60 growth inhibition: HOP-92 (Non-Small-Cell Lung Cancer); type: cell-based, human; conditions: Homo sapiens
OVCAR-3 = assay: NCI-60 growth inhibition: OVCAR-3 (Ovarian Cancer); type: cell-based, human; conditions: Homo sapiens
SNB-75 = assay: NCI-60 growth inhibition: SNB-75 (CNS Cancer); type: cell-based, human; conditions: Homo sapiens
T-47D = assay: NCI-60 growth inhibition: T-47D (Breast Cancer); type: cell-based, human; conditions: Homo sapiens, T47D
SK-MEL-2 = assay: NCI-60 growth inhibition: SK-MEL-2 (Melanoma); type: cell-based, human; conditions: Homo sapiens
MOLT-4 = assay: NCI-60 growth inhibition: MOLT-4 (Leukemia); type: cell-based, human; conditions: Homo sapiens
MCF7 = assay: NCI-60 growth inhibition: MCF7 (Breast Cancer); type: cell-based, human; conditions: Homo sapiens
TK-10 = assay: NCI-60 growth inhibition: TK-10 (Renal Cancer); type: cell-based, human; conditions: Homo sapiens
CAKI-1 = assay: NCI-60 growth inhibition: CAKI-1 (Renal Cancer); type: cell-based, human; conditions: Homo sapiens
NCI-H522 = assay: NCI-60 growth inhibition: NCI-H522 (Non-Small-Cell Lung Cancer); conditions: Homo sapiens, NCI-H522
EKVX = assay: NCI-60 growth inhibition: EKVX (Non-Small-Cell Lung Cancer); type: cell-based, human; conditions: Homo sapiens
RPMI-8226 = assay: NCI-60 growth inhibition: RPMI-8226 (Leukemia); type: cell-based, human; conditions: Homo sapiens
M14 = assay: NCI-60 growth inhibition: M14 (Melanoma); type: cell-based, human; conditions: Homo sapiens
SK-MEL-28 = assay: NCI-60 growth inhibition: SK-MEL-28 (Melanoma); type: cell-based, human; conditions: Homo sapiens

Question: What does the source list for `C=C1C(=O)O[C@H]2[C@H]1CC/C(COC(=O)NCc1ccc(Cn3c(=O)sn(-c4ccccc4)c3=O)cc1)=C\CC[C@@]1(C)O[C@@H]21` [BSK-197]?
Answer: GI50 (BT-549): 2140 nM; GI50 (SF-539): 1570 nM; GI50 (OVCAR-8): 2830 nM; GI50 (COLO 205): 1770 nM; GI50 (SN12C): 2130 nM; GI50 (MDA-MB-435): 2070 nM; GI50 (DU-145): 1710 nM; GI50 (786-0): 1810 nM; GI50 (IGROV1): 2090 nM; GI50 (K-562): 1800 nM; GI50 (MDA-MB-231/ATCC): 1710 nM; GI50 (UO-31): 1680 nM; GI50 (HCT-15): 1940 nM; GI50 (RXF 393): 1750 nM; GI50 (SF-268): 2210 nM; GI50 (SNB-19): 4260 nM; GI50 (ACHN): 1640 nM; GI50 (SK-MEL-5): 3240 nM; GI50 (OVCAR-4): 2740 nM; GI50 (NCI-H460): 3670 nM; GI50 (HCT-116): 1520 nM; GI50 (LOX IMVI): 1620 nM; GI50 (HT29): 2150 nM; GI50 (MDA-MB-468): 1170 nM; GI50 (UACC-257): 1860 nM; GI50 (CCRF-CEM): 830 nM; GI50 (UACC-62): 2040 nM; GI50 (OVCAR-5): 2510 nM; GI50 (MALME-3M): 2090 nM; GI50 (SW-620): 1910 nM; GI50 (A498): 3910 nM; GI50 (NCI-H23): 3550 nM; LD50, 7AAD (μM) 24 h ([1]; 24 h, 7AAD, MMB-TDZD analogs (Table 2)): 1.26 µM; LD50, Alamar blue (μM) 24 h ([1]; 24 h, Alamar blue, MMB-TDZD analogs (Table 2)): 2.02 µM; LD50, YOPRO (μM) 24 h ([1]; 24 h, YOPRO, MMB-TDZD analogs (Table 2)): 1.17 µM; LD50 ([1]; values in text): 980 nM; GI50 (PC-3): 2360 nM; GI50 (HS 578T): 4140 nM; GI50 (HOP-92): 1820 nM; GI50 (OVCAR-3): 1680 nM; GI50 (SNB-75): 2370 nM; GI50 (T-47D): 1980 nM; GI50 (SK-MEL-2): 2390 nM; GI50 (MOLT-4): 2200 nM; GI50 (MCF7): 1590 nM; GI50 (TK-10): 2210 nM; GI50 (CAKI-1): 2490 nM; GI50 (NCI-H522): 1740 nM; GI50 (EKVX): 1850 nM; GI50 (RPMI-8226): 2030 nM; GI50 (M14): 1800 nM; GI50 (SK-MEL-28): 1700 nM
